Entries after “also recorded” stand apart in the source; their conditions may differ.
Tests used:
[1] = tested on: Recessive dystrophic epidermolysis bullosa (RDEB) mice; details: four weeks, results published by Nyström et al.; cited from earlier work
thrombospondin-1 = assay: Western blot of whole protein lysates of mouse forepaws: thrombospondin-1; format: in vivo; details: RDEB mouse forepaw lysates, four weeks treatment, relative to untreated RDEB mice
Text: (§1) FIG. 7 depicts tenascin-C, thrombospondin-1, pSMAD2/3, galectin 3, and β-tubulin Western blots of whole protein lysates of mouse forepaws. Samples were obtained from age-matched wild-type mice, untreated recessive dystrophic epidermolysis bullosa (RDEB) mice, and RDEB mice treated with angiotensin (1-7) for four weeks.
(§2) FIG. 8 is a graph depicting the quantification of Western blot bands immunostained with antibodies directed against tenascin-C, thrombospondin-1, pSMAD2/3, and galectin 3. Samples consisted of whole protein lysates of mouse forepaws obtained from age-matched wild-type mice, untreated recessive dystrophic epidermolysis bullosa (RDEB) mice, and RDEB mice treated with angiotensin (1-7) for four weeks. Samples were normalized against β-tubulin. […] Each bar corresponds to a mean value, and error bars correspond to standard error of the mean (SEM).
(§3) Whole protein lysates from mouse forepaws were analyzed by Western blotting with antibodies directed against tenascin-C, thrombospondin-1, pSMAD2/3, galectin 3, and β-tubulin (FIG. 7). Thrombospondin 1 can activate transforming growth factor beta (TGFβ) signaling, which is associated with fibrosis. TGFβ signals through an intracellular SMAD pathway, and thus, phosphorylated-SMAD (e.g., pSMAD2/3) correlates with TGFβ-associated fibrosis. […] Western blotting results were quantified by densitometry and normalized against β-tubulin.

galectin 3 = assay: Western blot of whole protein lysates of mouse forepaws: galectin 3; format: in vivo; details: RDEB mouse forepaw lysates, four weeks treatment, relative to untreated RDEB mice
Text: as §1, §2, §3

pSMAD2/3 = assay: Western blot of whole protein lysates of mouse forepaws: pSMAD2/3; format: in vivo; details: RDEB mouse forepaw lysates, four weeks treatment, relative to untreated RDEB mice
Text: as §1, §2, §3

tenascin-C [2] = assay: Tenascin-C immunostaining of mouse forepaw cryosections; format: in vivo; details: RDEB mice, four weeks treatment, relative to untreated RDEB controls; P<0.001
Text: FIG. 3 depicts images of tenascin-C immunostained cryosections of mouse forepaws. The cryosections were obtained from age-matched wild-type mice, untreated recessive dystrophic epidermolysis bullosa (RDEB) mice, and RDEB mice treated with angiotensin (1-7) for four weeks. Each top panel corresponds to cryosections of the walking pads of a mouse, and each bottom panel corresponds to sections of toes. Tenascin-C is present at low abundance in uninjured skin, and it increases in fibrotic skin. […] Tenascin-C staining was observed primarily just below the dermal-epidermal junction in angiotensin (1-7) treated mice, which corresponds to the initial site of injury in RDEB mice. Cells were counterstained with 4′,6-diamidino-2-phenylindole (DAPI), and the scale bar corresponds to 200 μm.
FIG. 4 is a graph depicting the quantification of the fluorescence intensity of cryosection images of mouse forepaws immunostained with an anti-tenascin-C antibody. […]
Immunostaining was performed on cryosections of mouse forepaws of wild-type mice, untreated RDEB mice, and RDEB mice treated with angiotensin (1-7) for four weeks. […] Tenascin-C immunostaining was visualized using fluorescence microscopy (FIG. 3). Immunostaining was quantified with ImageJ software on images obtained with identical microscope settings and exposure time. […]

[3] = tested on: Recessive dystrophic epidermolysis bullosa (RDEB) mice; assay: Toe length and loss/fusion of digits in RDEB mice treated four weeks; format: in vivo, mouse
Procedure: FIGS. 1A-1B. Recessive dystrophic epidermolysis bullosa (RDEB) mice were treated with angiotensin (1-7) peptide for four weeks. FIG. 1A consists of images of the right forepaw of a RDEB mouse before and after treatment with angiotensin (1-7). […] FIG. 1B is a graph of the average toe length of RDEB mice treated with angiotensin (1-7) peptide for four weeks (“Tarix”) or a vehicle control (“Vehicle”) as a percentage of average toe length before treatment.
FIG. 2 is a graph of average toe length of recessive dystrophic epidermolysis bullosa (RDEB) mice treated with either angiotensin (1-7) peptide, losartan, or a vehicle control for four weeks as a percentage of average toe length before treatment.
Recessive dystrophic epidermolysis bullosa (RDEB) is caused by a mutation in the gene encoding type VII collagen. RDEB mice display marked fibrosis, which leads to deleterious phenotypes including the fibrosis-driven loss and fusion of digits over time (see, e.g., Nyström, A. et al., EMBO MOLECULAR MEDICINE 7(9):1211-28 (2015)).
RDEB mice were treated with angiotensin (1-7) for four weeks (nine mice) or left untreated (three mice). Three wild type mice served as controls.

[4] = tested on: α-SMA positive myofibroblasts; assay: α-SMA immunostaining of mouse forepaw cryosections; format: in vivo; details: RDEB mice, four weeks treatment, relative to untreated RDEB mice
Text: (§4) FIG. 5 depicts images of α-SMA (top panel), fibronectin (middle panel), and CD11b (bottom panel) immunostained cryosections of mouse forepaws. The cryosections were obtained from age-matched wild-type mice, untreated recessive dystrophic epidermolysis bullosa (RDEB) mice, and RDEB mice treated with angiotensin (1-7) for four weeks. […] Cells were counterstained with 4′,6-diamidino-2-phenylindole (DAPI).
(§5) Cryosections of mouse forepaws were also immunostained for α-SMA (alpha smooth muscle actin), fibronectin, and CD11b. α-SMA is a myofibroblast cell marker, which correlates with fibrotic disease. Fibronectin correlates with dermal fibrosis. CD11b (integrin αM subunit) is a leukocyte marker, which is expressed by monocytes, granulocytes (e.g., neutrophils), macrophages, and natural killer cells.

[5] = tested on: Recessive dystrophic epidermolysis bullosa (RDEB) mice; assay: Blistering of forepaws of RDEB mice; format: in vivo, mouse; details: four weeks treatment, wild type controls lacked blistering
[6] = tested on: CD11b-positive inflammatory leukocytes; assay: CD11b immunostaining of mouse forepaw cryosections, CD11b-positive cells counted with ImageJ; format: in vivo; details: RDEB mice, four weeks treatment
Text: as §4
FIG. 6 is a graph depicting the quantification of CD11b-positive cells per mm^2 in images of immunostained cryosections of mouse forepaws. The cryosections were obtained from age-matched wild-type mice, untreated recessive dystrophic epidermolysis bullosa (RDEB) mice, and RDEB mice treated with angiotensin (1-7) for four weeks. CD11b stains neutrophils and macrophages. […] Each bar corresponds to a mean value, and error bars correspond to standard error of the mean (SEM).
Cryosections of mouse forepaws were also immunostained for α-SMA (alpha smooth muscle actin), fibronectin, and CD11b. α-SMA is a myofibroblast cell marker, which correlates with fibrotic disease. Fibronectin correlates with dermal fibrosis. […]
The number of CD11b-positive cells per mm^2 was quantified using ImageJ software. […] Identical thresholds were applied to all images, the images were converted to binary images, and all particles >10 pixles^2 were automatically counted.

tenascin-C [7] = assay: Western blot of whole protein lysates of mouse forepaws: tenascin-C; format: in vivo; details: RDEB mouse forepaw lysates, four weeks treatment, relative to untreated RDEB mice
Text: as §1, §2, §3

fibronectin = assay: Fibronectin immunostaining of mouse forepaw cryosections; format: in vivo; details: RDEB mice, four weeks treatment, relative to untreated RDEB mice
Text: as §4, §5

Row | Molecule | average toe length as a percentage of average toe length before treatment (losartan) [1] | thrombospondin-1 abundance, Western blot normalized against β-tubulin (thrombospondin-1) | galectin-3 abundance, Western blot normalized against β-tubulin (galectin 3) | phosphorylated SMAD2/3 (pSMAD2/3) abundance, Western blot normalized against β-tubulin (pSMAD2/3) | tenascin-C immunostaining (fluorescence intensity) in forepaw dermis (tenascin-C [2]) | average toe length as a percentage of average toe length before treatment ([3]; relative to vehicle-treated RDEB controls (results published by Nyström et al.)) | fibrosis-driven loss and fusion of digits ([3]; right forepaw, four weeks treatment) | α-SMA positive cells (myofibroblasts) in forepaw [4] | blistering of forepaws [5] | CD11b-positive cells in forepaw dermis ([6]; relative to untreated RDEB mice) | number of CD11b-positive cells per mm^2 compared with wild type mice ([6]; versus age-matched wild type mice) | tenascin-C abundance, Western blot normalized against β-tubulin (tenascin-C [7]) | dermal fibronectin immunostaining in forepaw (fibronectin)
1 | CCCCc1nc(Cl)c(CO)n1Cc1ccc(-c2ccccc2-c2nn[nH]n2)cc1 [losartan] | similar | – | – | – | – | – | – | – | – | – | – | – | –
2 | Asp^1-Arg^2-Val^3-Tyr^4-Ile^5-His^6-Pro^7 [angiotensin (1-7)] | – | reduced abundance of the TGFβ activator thrombospondin-1 | reduced galectin-3 | reduced abundance of phosphorylated SMAD2/3 | significant (P<0.001) reduction in tenascin-C staining; also recorded: significantly lowered the amount of tenascin-C staining; also recorded: significant reduction in tenascin-C immunostaining | significant reduction in the decrease in toe length; also recorded: protected against RDEB-associated decreases in toe length | reduced the expression of this deleterious phenotype; also recorded: protected against RDEB-associated decreases in toe length and fusion of digits | fewer α-SMA positive cells; also recorded: reduced the number of α-SMA positive myofibroblasts | displayed blistering | fewer CD11b-positive cells; also recorded: reduced; also recorded: reduction in CD11b-positive cell density | about the same number of CD11b-positive cells per mm^2 as wild type mice | reduced tenascin-C | less fibronectin immunostaining; also recorded: reduced

Source: patent US10960045B2, “Methods and compositions for the treatment of epidermolysis bullosa” (Constant Therapeutics LLC, priority 2015, dated 2021)
